Results on one compound are retold here after patent US20100210649A1, “PYRIDAZINONES AND FURAN-CONTAINING COMPOUNDS” (Sloan-Kettering Institute for Cancer Research, priority 2006, published 2010).

Test [1] has as its system H2030 cells. Briefly: [3H]-thymidine incorporation assay, H2030. The note with it: increasing concentrations, 24 hours. The class given is cell-based, human. The method, then:
FIG. 1. SKI-267077 blocks DNA synthesis. H2030 cells were treated with the indicated concentration of SKI-267077 for 24 h and then the incorporation of ^3H-thymidine into DNA was determined
(§1) [^3H]-thymidine incorporation assay. Cells were seeded in 12-well plates at a density of 100 000 cells/well and treated with inhibitors for 24 hours. H3-thymidine (3 μCi/mL) was then added for 3 hours. Cells were washed twice with PBS, fixed with cold 10% TCA (in PBS) for 30 min then lysed with 0.5% NaOH/0.5% SDS. DNA was scraped from the wells and the amount of H3-thymidine incorporated determined by liquid scintillation counting.
SKI-267077 inhibits DNA synthesis. […] H2030 cells were treated with increasing concentrations of SKI-267077 for 24 hours and then incorporation of ^3H-thymide into DNA determined (FIG. 1).
For orientation: Incorporation of labelled thymidine or its analogues reports DNA synthesis.

Test [2] concerns H3255. Briefly: [3H]-thymidine incorporation assay, H3255. The class given is cell-based, human. The note with it: H3255, mutant EGFR. The protocol: FIGS. 41A-41B. SKI-267077 inhibits DNA synthesis. SKI-267077 was used to elucidate the mechanism by which this agent inhibits cell growth.
as §1

Test [3] has as its system H2030 cells. Briefly: Cell cycle analysis (FACS), H2030. The format is cell-based, human. The note with it: 24 hours. The protocol:
FIGS. 2A-2B. SKI-267077 induces cell cycle arrest. H2030 cells were treated with SKI-267077 for 24 h. Cell cycle progression was analyzed by FACS analysis. FIG. 2A: Percent of cells in S-phase. FIG. 2B: percent of cells in G1 phase.
Cell cycle analysis. For cell cycle analysis, cells were plated at a density of 500,000 cells per well in 6-well plates. Attached cells were treated with drugs for 24 h. Cells were then collected, washed with PBS and fixed in 70% ethanol for 1 h. For FACS analysis, fixed cells were washed with cold PBS resuspended in PBS containing 200 μg/mL propidium iodide and 0.1% sodium citrate. Flow cytometry was performed on a Becton-Dickinson FACSCalibur flow cytometer and data the processed using FlowJo software.
SKI-267077 induces cell cycle arrest at the G1 phase. Cell cycle progression in the presence of SKI-267077 was determined by FACS analysis of H2030 cells that were treated for 24 hours.

Test [4] relates to cells. Briefly: Annexin V binding (FACS) apoptosis assay. The format is cell-based. The note with it: 48 hours, FITC-labeled annexin V. The protocol: FIG. 42. SKI-267077 induces apoptosis. Cells were treated for 48 hours with SKI-267077 and then binding of FITC-labeled annexin V to cells determined FACS analysis was used to determine the amount of annexin V-positive cells.

The structures appear in SMILES notation.

For the compound `O=c1c(Cl)c(Cl)cnn1-c1ccc(Cl)cc1Cl` [compound 267077], the “incorporation of 3H-thymidine into DNA (DNA synthesis)” value in test [1] is on record as “dose-dependent decrease in DNA synthesis”. Besides, in test [2], the DNA synthesis result is reported as “dose-dependent reduction in DNA synthesis”. In test [3], the “percent of cells in the G1 phase” value is given as “increase in the percent of cells in the induce G1 phase” and the “percent of cells in the S phase” value is recorded as “reduction of the percent of cells in the S phase”. For the same compound, in test [4], the “apoptosis, binding of annexin-V to the cell surface” value was “induction of apoptosis”.
